From publication PMC12670425, “Mechanistic Characterization of a Small Molecule as a Direct NLRP3 Inhibitor via Binding to the NACHT Domain” (Journal of Medicinal Chemistry, 2025)

Experiments:
[1] = target: T1, NLRP3 (Mus musculus, UniProt Q8R4B8); experiment: Photoaffinity labeling of recombinant NLRP3 with YM-I-27 and NBD-Azide click, with competition; type: binding
T1 construct: The recombinant full-length NLRP3 protein was expressed and purified as previously described using Expi293F cells; FLAG (N); host or cells: Expi293F
T1 sequence (Q8R4B8 whole entry): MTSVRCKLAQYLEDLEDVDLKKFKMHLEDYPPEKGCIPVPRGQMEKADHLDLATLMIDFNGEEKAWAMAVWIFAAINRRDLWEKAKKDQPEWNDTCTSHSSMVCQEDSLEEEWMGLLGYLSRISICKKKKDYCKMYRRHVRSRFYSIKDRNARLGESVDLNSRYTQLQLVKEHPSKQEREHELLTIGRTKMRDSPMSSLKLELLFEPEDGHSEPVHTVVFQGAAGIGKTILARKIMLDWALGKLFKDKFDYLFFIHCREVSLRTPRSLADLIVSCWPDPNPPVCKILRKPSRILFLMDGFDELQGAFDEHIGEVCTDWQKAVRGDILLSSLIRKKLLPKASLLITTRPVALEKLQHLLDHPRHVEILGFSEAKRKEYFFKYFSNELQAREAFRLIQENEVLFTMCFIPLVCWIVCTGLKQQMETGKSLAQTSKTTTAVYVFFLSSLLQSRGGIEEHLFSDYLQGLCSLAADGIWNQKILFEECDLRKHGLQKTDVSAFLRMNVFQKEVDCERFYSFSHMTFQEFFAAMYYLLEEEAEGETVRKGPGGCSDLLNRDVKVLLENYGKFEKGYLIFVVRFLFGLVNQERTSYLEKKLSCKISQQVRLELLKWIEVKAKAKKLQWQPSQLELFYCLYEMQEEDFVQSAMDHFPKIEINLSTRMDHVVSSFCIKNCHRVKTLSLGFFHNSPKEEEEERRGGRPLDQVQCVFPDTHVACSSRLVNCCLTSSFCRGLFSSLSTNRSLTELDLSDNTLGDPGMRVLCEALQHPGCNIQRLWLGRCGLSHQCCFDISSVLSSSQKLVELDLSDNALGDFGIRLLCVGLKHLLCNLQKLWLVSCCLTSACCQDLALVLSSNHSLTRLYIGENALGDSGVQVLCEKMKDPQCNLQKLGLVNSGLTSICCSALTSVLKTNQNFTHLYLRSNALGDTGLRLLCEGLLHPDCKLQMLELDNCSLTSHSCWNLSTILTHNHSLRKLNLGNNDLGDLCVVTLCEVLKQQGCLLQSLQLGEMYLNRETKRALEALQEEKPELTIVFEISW
Method: 30 μL aliquots of recombinant NLRP3 or a mixture of J774A.1 cell lysate and NLRP3 were incubated with or without YM-I-27 at the indicated concentrations at 37 °C for 30 min. The samples were then placed on ice and irradiated at 365 nm for 15 min. Subsequently, 1 μL of NBD-Azide (5 mM) or Biotin-PEG3-Azide (5 mM) was added to the samples, followed by the addition of 1 μL of CuSO4 (50 mM), tris(benzyltriazolylmethyl)-amine (TBTA) (30 mM), and tris(2-carboxyethyl)-phosphine (TCEP) (100 mM). The CuAAC reactions were agitated at room temperature for 1 h, and proteins were precipitated with prechilled methanol and left to dry. The protein pellets were then suspended in 30 μL of 2x SDS loading buffer and heated for 10 min at 95 °C. […] The Biotin-PEG3-Azide-labeled proteins were then transferred to membranes and analyzed by Western blotting using streptavidin-HRP and NLRP3 antibodies, respectively.

[2] = target: T2, NLRP3 inflammasome (Mus musculus, UniProt Q8R4B8); experiment: IL-1β production in J774A.1 cells upon NLRP3 inflammasome activation (ELISA); type: cell-based, murine; settings: for IC50: LPS/ATP activation
T2 construct: endogenous in cells; host or cells: J774A.1 murine macrophages (LPS- or Pam3CSK4-primed)
Method: The levels of IL-1β and TNF-α in the supernatant were measured by ELISA.

[3] = target: T1, NLRP3; experiment: In situ proteome click labeling in J774A.1 cell lysate spiked with NLRP3; type: binding, murine; settings: YM-I-27 3 and 10 μM; Biotin-PEG3-Azide click; J774A.1 lysate:NLRP3 20:1
Method: 30 μL aliquots of recombinant NLRP3 or a mixture of J774A.1 cell lysate and NLRP3 were incubated with or without YM-I-27 at the indicated concentrations at 37 °C for 30 min. The samples were then placed on ice and irradiated at 365 nm for 15 min. Subsequently, 1 μL of NBD-Azide (5 mM) or Biotin-PEG3-Azide (5 mM) was added to the samples, followed by the addition of 1 μL of CuSO4 (50 mM), tris(benzyltriazolylmethyl)-amine (TBTA) (30 mM), and tris(2-carboxyethyl)-phosphine (TCEP) (100 mM). The CuAAC reactions were agitated at room temperature for 1 h, and proteins were precipitated with prechilled methanol and left to dry. The protein pellets were then suspended in 30 μL of 2x SDS loading buffer and heated for 10 min at 95 °C. The SDS-PAGE gels of NBD-Azide-labeled proteins were then washed with washing buffer (10% acetic acid, 40% methanol in water) for 2 h and imaged using ChemiDoc MP Imaging System (Bio-Rad) with Alexa Fluor 488 (λex = 490 nm, λem = 525 nm). The Biotin-PEG3-Azide-labeled proteins were then transferred to membranes and analyzed by Western blotting using streptavidin-HRP and NLRP3 antibodies, respectively.

[4] = target: T3, endogenous NLRP3 (Mus musculus, UniProt Q8R4B8); experiment: Immunocytochemistry FRET assay in J774A.1 cells; type: cell-based, murine; settings: LPS-treated J774A.1 cells; TAMRA acceptor clicked to probe
T3 construct: endogenous in cells; host or cells: J774A.1 murine macrophages (LPS- or Pam3CSK4-primed)
Method: J774A.1 cells were treated with 1 μg/mL LPS for 4.5 h, and the photoactive probe (YM-I-27) was added and incubated for 30 min. Cells were irradiated at 365 nm for 30 min on ice and were fixed and permeabilized following the Immunofluorescence Microscopy procedures. The click reaction was performed in PBS containing TAMRA-N3 (30 μM), CuSO4 (800 μM), TBTA (500 μM), and TCEP (500 μM) at room temperature in the dark for 2.5 h. Cells were thoroughly washed with PBS and blocked by following the above procedures. Cells were then treated with anti-NLRP3 (cryo-2, 1:200) for 1.5 h, followed by Alexa Fluor 488-conjugated antimouse secondary antibody (Thermo Fisher, 4 μg/mL). Coverslips were mounted to slides, and data were acquired using a Zeiss LSM710 confocal microscope (Zeiss) and a 440 nm pulsed laser. The difference in the fluorescence lifetime was calculated by subtracting the median lifetime of Alexa Fluor 488 (donor) in the absence and presence of the YM-I-27 probe clicked with TAMRA (acceptor).

[5] = target: T4, NLRP3, NEK7, ASC (Mus musculus, UniProt Q8R4B8); experiment: Photoaffinity labeling and pull-down with YM-I-85 in LPS-primed J774A.1 cell lysates; type: binding, murine; settings: UV irradiation
T4 construct: endogenous in cells; host or cells: J774A.1 murine macrophages (LPS- or Pam3CSK4-primed)
Method: LPS-primed J774A.1 cells were lysed with NP-40 lysis buffer (50 mM Tris-HCl at pH 8, 150 mM NaCl, 1.0% NP-40, supplemented with cOmplete mini protease inhibitor cocktail) and centrifuged at 20,000g for 20 min at 4 °C. The supernatant was diluted to a concentration of 1.2 mg/mL and incubated with the competing compound for 1 h on ice, followed by incubation with YM-I-85 for 1 h on ice. Samples were irradiated at 365 nm for 15 min and then incubated with Streptavidin Agarose Resin (Thermo Fisher) overnight at 4 °C. The resins were washed once with 0.1% SDS in PBS and twice with 1% NP-40 in PBS before eluting with SDS-PAGE loading buffer and boiling. Beads were spun down, and the supernatants were analyzed by immunoblotting.

[6] = tested on: TNF-α; experiment: TNF-α production in J774A.1 cells under LPS/nigericin (ELISA); type: cell-based, murine
[7] = tested on: NLRP3 and pro-IL-1β expression; experiment: Western blot of LPS-induced NLRP3 and pro-IL-1β (priming stage) in J774A.1 cells; type: cell-based, murine; settings: YQ128 10 μM, curcumin 150 μM, MCC950 1 μM, LPS 1 μg/mL
[8] = tested on: ASC specks; experiment: ASC speck formation by immunofluorescence in J774A.1 cells; type: cell-based, murine; settings: LPS/nigericin, YQ128 10 and 20 μM
Method: J774A.1 cells were seeded onto poly-D-lysine-coated glass coverslips in a 12-well plate (1 × 10^6 cells/well) and cultured in their respective growth medium, allowing them to attach overnight at 37 °C. For ASC speck formation, cells were treated with 1 μg/mL LPS for 4.5 h with different doses of compound treatments during the last hour, followed by treatment with 10 μM nigericin for 1.5 h. Cells were fixed with 4% paraformaldehyde, permeabilized with 0.1% Triton X-100 in PBS, and then blocked with 1% BSA and 0.1% Tween-20 in PBS. […] Nuclei were stained with DAPI (2 μg/mL), and coverslips were mounted onto slides using Epredia Immuno-Mount (Fisher Scientific). Images were acquired using a Zeiss LSM700 confocal microscope (Zeiss).

[9] = tested on: mitochondrial ROS; experiment: Mitochondrial ROS and integrity (MitoSOX/MitoTracker) in J774A.1 cells; type: cell-based, murine; settings: LPS/nigericin, YQ128 10 μM
Method: J774A.1 cells (5 × 10^5 cells/mL) were plated in 12-well plates precoated with poly-L-lysine overnight. […] The supernatants were discarded, and the cells were washed with ice-cold PBS three times and fixed with 4% PFA in PBS for 15 min. DAPI (5 μg/mL) was used for nuclear staining. After that, the cells were washed with PBS three times, and fluorescence microscopy analyses were carried out using an Olympus IX73.
Figure S2. J774A.1 were primed with LPS (1 μg/mL) for 4.5 h and treated with or […]
h. Cells were stained with MitoSOX and MitoTracker red. Nuclei were stained with […]
Figure S3. YQ128 (A&B) and MCC950 (C&D) dose-dependently block the recognition of NLRP3 by D4D8T antibody. […]

[10] = tested on: caspase-1 and GSDMD cleavage; experiment: Western blot of cleavage of caspase-1 and GSDMD in J774A.1 cells; type: cell-based, murine; settings: LPS 10 μg/mL/nigericin 10 μM
Method: J774A.1 cells were seeded into a 24-well plate at 0.6 × 10^6 cells/well and allowed to attach overnight at 37 °C. For the priming, cells were treated with compounds for 1 h, followed by 1 μg/mL LPS treatment for 4.5 h. Cells were lysed in RIPA buffer, and cell lysates were analyzed by immunoblotting. For the activation, cells were treated with 10 μg/mL LPS for 4.5 h. Compounds were added during the last hour of LPS treatment. Then, cells were treated with 10 μM nigericin for 1 h. Cells were lysed in RIPA buffer, and cell lysates were analyzed by immunoblotting.
Protein samples were prepared with 4x Laemmli sample buffer (Bio-Rad) supplemented with β-mercaptoethanol, followed by boiling for 5–10 min. Samples were then resolved by SDS-PAGE and dry-transferred to poly­(vinyl difluoride) (PVDF) membranes using a Trans-Blot Turbo transfer system (Bio-Rad). Membranes were blocked in 5% (w/v) dried milk or BSA in TBS (Bio-Rad) supplemented with 0.1% (v/v) Tween-20 (TBS-T) for 1 h at room temperature or overnight at 4 °C. Membranes were then incubated with primary antibody, followed by a horseradish peroxidase (HRP)-conjugated secondary antibody, each diluted in 5% (w/v) dried milk or BSA in TBS-T for 1–2 h at room temperature or overnight at 4 °C. Membranes were developed with Clarity Western ECL substrate (Bio-Rad) and visualized for chemiluminescence using an Amersham Imager 680. […]

[11] = target: T5, recombinant human NLRP3 protein (Homo sapiens, UniProt Q96P20); experiment: Microscale thermophoresis (MST); type: binding; settings: n = 3
T5 construct: The recombinant full-length NLRP3 protein was expressed and purified as previously described using Expi293F cells; 10His (N); 6His (C); made in house; host or cells: Expi293F
T5 sequence (Q96P20 whole entry): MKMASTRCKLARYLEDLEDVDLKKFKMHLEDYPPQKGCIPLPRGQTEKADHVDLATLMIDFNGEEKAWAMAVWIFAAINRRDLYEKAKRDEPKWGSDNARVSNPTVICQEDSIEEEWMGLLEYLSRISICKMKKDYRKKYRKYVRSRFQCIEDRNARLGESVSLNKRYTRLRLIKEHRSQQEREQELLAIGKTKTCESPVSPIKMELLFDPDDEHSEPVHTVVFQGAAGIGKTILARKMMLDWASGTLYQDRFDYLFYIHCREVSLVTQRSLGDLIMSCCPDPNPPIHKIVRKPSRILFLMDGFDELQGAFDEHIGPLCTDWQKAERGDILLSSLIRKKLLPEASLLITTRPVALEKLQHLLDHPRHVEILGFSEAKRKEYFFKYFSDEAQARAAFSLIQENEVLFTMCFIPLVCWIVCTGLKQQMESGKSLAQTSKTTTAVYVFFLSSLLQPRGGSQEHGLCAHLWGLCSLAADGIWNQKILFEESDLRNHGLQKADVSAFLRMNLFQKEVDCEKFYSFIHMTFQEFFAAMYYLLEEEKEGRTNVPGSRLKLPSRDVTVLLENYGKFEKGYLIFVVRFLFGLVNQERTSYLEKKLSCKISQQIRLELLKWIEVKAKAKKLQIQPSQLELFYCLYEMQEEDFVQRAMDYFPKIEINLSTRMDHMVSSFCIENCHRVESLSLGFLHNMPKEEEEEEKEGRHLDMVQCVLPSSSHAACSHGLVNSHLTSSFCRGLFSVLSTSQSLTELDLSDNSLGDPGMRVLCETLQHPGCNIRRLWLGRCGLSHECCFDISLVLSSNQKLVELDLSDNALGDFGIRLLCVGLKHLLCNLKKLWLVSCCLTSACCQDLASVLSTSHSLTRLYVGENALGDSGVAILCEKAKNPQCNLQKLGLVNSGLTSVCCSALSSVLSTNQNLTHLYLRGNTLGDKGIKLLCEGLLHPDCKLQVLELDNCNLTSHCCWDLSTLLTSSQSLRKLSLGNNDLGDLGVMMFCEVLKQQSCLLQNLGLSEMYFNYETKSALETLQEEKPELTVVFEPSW
Method: The binding affinity was measured with a Monolith NT.Automated instrument as described previously. Recombinant human NLRP3 protein (500 nM) was labeled with 50 nM RED-tris-NTA dye (NanoTemper Technologies, MO-L018). […] The samples were loaded into NanoTemper glass capillaries, and thermophoresis curves were analyzed using the instrument.

[12] = target: T6, NLRP3 NACHT domain (Homo sapiens, UniProt Q96P20); experiment: Surface plasmon resonance (SPR); type: binding; settings: biotinylated NACHT protein; single-cycle kinetics, 1:1 model
T6 construct: (K131-L679)-Avi plasmid; 8His-Strep II-ZZ-TEV site (N, cleaved yes); made in house; host or cells: Sf21 insect cells (baculovirus)
T6 sequence (Q96P20 131-679): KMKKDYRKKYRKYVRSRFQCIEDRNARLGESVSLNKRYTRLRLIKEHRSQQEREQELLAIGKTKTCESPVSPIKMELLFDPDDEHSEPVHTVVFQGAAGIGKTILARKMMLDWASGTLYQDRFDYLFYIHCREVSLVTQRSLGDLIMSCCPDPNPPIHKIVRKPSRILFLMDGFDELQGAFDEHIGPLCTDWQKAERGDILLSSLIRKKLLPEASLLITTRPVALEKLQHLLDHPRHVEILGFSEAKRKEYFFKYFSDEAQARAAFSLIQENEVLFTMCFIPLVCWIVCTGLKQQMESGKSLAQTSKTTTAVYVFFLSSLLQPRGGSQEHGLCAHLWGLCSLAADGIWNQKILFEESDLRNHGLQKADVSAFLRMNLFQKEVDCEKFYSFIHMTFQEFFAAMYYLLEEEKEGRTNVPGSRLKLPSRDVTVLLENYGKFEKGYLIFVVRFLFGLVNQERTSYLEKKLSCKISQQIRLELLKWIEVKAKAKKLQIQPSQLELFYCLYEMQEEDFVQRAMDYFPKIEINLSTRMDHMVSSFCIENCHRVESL
Method: Human biotinylated-NACHT domain of NLRP3 was expressed in Sf21 insect cells using the pFastBac1–8His-Strep II-ZZ-TEV-NLRP3­(K131-L679)-Avi plasmid. For protein expression, 1.6 L of insect cells were cultured with a viral stock of the second passage for 48 h at 27 °C. Cells were collected, lysed in lysis buffer (50 mM HEPES pH 7.5, 500 mM NaCl, 10% glycerol, 1 mM MgCl2, 1 mM TCEP, 100 μM ATP) and centrifuged at 16,000 rpm for 60 min. The supernatant was loaded onto a Ni Bestarose FF column and eluted with lysis buffer containing 300 mM imidazole. The sample was biotinylated in a tube containing BirA enzyme (1:100 (w/w) to protein) with biotin buffer and TEV protease (1:10 (w/w) to protein), and the reaction was incubated at 4 °C overnight. The sample was collected and eluted with a lysis buffer containing 75 mM biotin from Strep-Tactin XT columns. The biotinylated NACHT protein was further purified with HiLoad 16/600 Superdex 200 pg column with an elution buffer (50 mM HEPES pH 7.5, 500 mM NaCl, 10% glycerol, 1 mM MgCl2, 1 mM TCEP).
SPR experiments were performed on a Biacore 1K system with streptavidin sensor chip (Series S Sensor Chip SA, Cytiva) according to the reported procedure. The system was flushed with running buffer (10 mM HEPES, pH 7.4, 150 mM NaCl, 0.5 mM ADP, 0.5 mM TCEP, 2 mM MgCl2, 0.05% Tween 20, 2% DMSO). […]

[13] = tested on: full-length NLRP3, PYD-NACHT fragment, PYD fragment; experiment: Drug affinity responsive target stability (DARTS); type: binding, human; settings: YQ128 50 μM; 50–200 ng Pronase per μg protein
Method: Then, 0.1 mg/mL Pronase (Sigma-Aldrich) was added at the protease to protein ratio, between 50 and 200 ng Pronase per μg of protein for 7.5–30 min at room temperature. The reaction was stopped by the addition of a 20x protease inhibitor cocktail and incubated on ice for 10 min. Protein samples were analyzed by immunoblotting.

[14] = target: T7, caspase-1 (Homo sapiens, UniProt P29466); experiment: In vitro caspase-1 cleavage assay (recombinant YTHDF2 substrate); settings: recombinant caspase-1; YQ128 1, 3 and 10 μM
T7 sequence (P29466 120-297 limits assumed): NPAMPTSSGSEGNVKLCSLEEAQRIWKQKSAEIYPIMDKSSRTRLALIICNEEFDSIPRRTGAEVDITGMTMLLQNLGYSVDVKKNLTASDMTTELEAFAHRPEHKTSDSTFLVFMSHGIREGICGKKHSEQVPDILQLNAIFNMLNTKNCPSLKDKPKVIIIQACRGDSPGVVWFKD
T7 sequence (P29466 317-404 limits assumed): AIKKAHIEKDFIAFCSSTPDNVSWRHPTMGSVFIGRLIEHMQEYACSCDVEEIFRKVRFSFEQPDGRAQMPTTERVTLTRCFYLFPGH
Method: The reactions were then terminated by boiling in 2× SDS sample buffer, and the samples were analyzed by Western blotting.

## O=C(O)c1ccc(/C=C2/SC(=S)N(Cc3cccc(C(F)(F)F)c3)C2=O)cc1 [CY-09, reference compound]
[1]; recombinant NLRP3 preincubated with competitor
  competition of YM-I-27 labeling of NLRP3: completely blocked the interaction

## C#CCCC1(CCOc2ccc(Cl)cc2CN(CCc2ccc(S(=O)(=O)NCC#C)cc2)C(=O)Cc2ccsc2)N=N1 [YM-I-27]
[2]
  IC50: 0.5 µM
[1]; UV cross-linking, NBD-N3 click, fluorescent visualization
  labeling of recombinant NLRP3 protein by probe: dose-dependently labeled the NLRP3 protein
[3]
  in situ proteome labeling: successfully and efficiently recognized NLRP3 along with four other proteins
[4]
  decrease of emission lifetime of Alexa Fluor 488 (FRET donor): ~44 ps

## C#CCNS(=O)(=O)c1ccc(CCN(Cc2cc(Cl)ccc2OCCC2(CCc3cn(CCOCCOCCNC(=O)CCCCC4SCC5NC(=O)NC54)nn3)N=N2)C(=O)Cc2ccsc2)cc1 (centres unmarked) [YM-I-85]
[2]
  IC50: 2.4 µM
[2]; LPS/ATP, IL-1β
  potency relative to YQ128 (fold less): ~8 fold
[5]
  photoaffinity labeling of proteins by probe (pull-down, Western blot): efficiently labeled NLRP3 and NEK7 in a dose-dependent manner but not ASC

## C#CCNS(=O)(=O)c1ccc(CCN(Cc2cc(Cl)ccc2OCCC)C(=O)Cc2ccsc2)cc1 [YQ128]
[6]
  production of TNF-α: No inhibition
[7]
  levels of LPS-induced pro-IL-1β and NLRP3: neither YQ128 nor MCC950 changed the levels
[8]
  formation of ASC specks: significantly suppressed the formation of ASC specks
[9]
  production of mitochondrial ROS and integrity: no significant effect
[10]
  cleavage of caspase-1 and GSDMD: inhibitory effect
[11]
  Kd: 0.117 µM
[12]
  Kd: 0.165 µM
[13]
  Pronase digestion pattern (DARTS): the digestion pattern of the full-length NLRP3 and the PYD-NACHT fragment, but not the PYD fragment, by Pronase was altered
[14]
  catalytic activity of caspase-1: does not interfere with the catalytic activity of caspase-1
